Laboratory results as given in patent US10144742B2 (Millennium Pharmaceuticals, Inc., priority 2014, dated 2018).
Read-outs that look alike come from different tables or passages of the source.

Legend:
[1] = target: hNAMPT protein (Homo sapiens (Human), UniProt P43490); assay: NAMPT enzyme assay (TR-FRET/HTRF, BodiPY ligand, anti 6His-Tb); format: binding; conditions: for IC50: NAMPT IC50 range class, read-out: IC50; for inhibition at 1 µM: read-out: Percent Inhibition
From the text: As discussed above, the invention provides compounds that are useful as inhibitors of the enzyme NAMPT. The NAMPT inhibition of a compound of the invention can be measured using a variety of methods known in the art. For example, the ability of a compound of the invention to inhibit NAMPT enzyme activity can be measured using a homogeneous time resolved fluorescence (HTRF) assay using hNAMPT protein and anti 6His-Tb in buffer treated with a compound of the invention (or control e.g., DMSO) and BodiPY ligand. The TR-FRET signal can be measured using a high throughput microplate reader (e.g., Pherastar). Excitation can be carried out at 320 nm. The percent inhibition value at a single concentration of compound of the invention can be calculated relative to a control treated sample. A concentration response curve can be generated for each compound of the invention and the curve fitted to generate an IC50 value. […] Cat. No. […] To this solution is added test compounds or vehicle control (DMSO) and BodiPY ligand (structure below). The plate is shaken for 1-2 min, sealed and incubated for 1 hour at rt in the dark. The TR-FRET signal is measured using BMG Pherastar (Lanthascreen protocol on BMG Pherastar). Excitation was carried out at 320 nm, and the ratio of emission of BodiPY (520 nm) to terbium (486 nm) was determined. Concentration response curves are generated by calculating the excitation increase in test compound-treated samples relative to DMSO-treated controls. For the assay method described above, test compound percent inhibition values at a single concentration are calculated relative to control (DMSO) treated samples. Compound concentration response curves are fitted to generate IC50 values from those curves. One skilled in the art will appreciate that these values generated either as percentage inhibition at a single concentration or IC50 values are subject to experimental variation.

[2] = test system: PC3 cells; assay: PC3 growth inhibition (Cell-titer glo, 72 hours); format: cell-based; conditions: Homo sapiens, PC-3, PC3 cells, 72 hours, Cell-titer glo, read-out: Percent Inhibition (PC3 growth inhibition); for inhibition at 1 µM: compound concentration 1 μM; for inhibition at 1.667 µM: compound concentration 1.667 μM
Protocol: The ability of a compound of the invention to inhibit the growth of cells can be measured using a variety of methods known in the art. For example, the ability of a compound of the invention to inhibit the growth of PC3 cells can be measured. PC3 cells can be plated and incubated overnight under CO2. For each measurement, a compound of the invention (or vehicle e.g., DMSO) can be diluted with AIM serum free medium and added to the cell plate. The cell plate can then be incubated for 72 h under CO2. Cell-titer glo solution can be added and the plates can be incubated protected from light and the amount of luminescences can be measured. Concentration response curves can be generated by calculating the luminescence increase in test compound treated samples relative to DMSO-treated controls. Percentage remaining viability values at a single concentration can be measured. Growth inhibition (GI50) or cell viability (LD50) values can be determined from those curves.
Compounds of the invention were assayed to measure PC3 growth inhibition at a concentration of 1 μM or 1.667 μM (Table 3). To measure PC3 growth inhibition, PC3 cells that were maintained in PRMI1640 growth medium (Life Technologies; Cat. No. 11875) at 37° C. under 5% CO2 are trypsinized and diluted at a density of 8×10^4 cells/ml, 25 ul per well of cells and plated in 384-well black tissue culture plate. The cells are incubated overnight at 37° C. under 5% CO2. For each measurement, a test compounds or vehicle control (DMSO) are diluted with AIM serum free medium and added to the cell plate. Incubate for 72 hours at 37° C. under 5% CO2. 25 μl Cell-titer glo solution (Promega; Cat. No. G8462) is added and the cell plates are incubated for 10 minutes protected from light. The luminescence is measured. Concentration response curves are generated by calculating the luminescence increase in test compound-treated samples relative to DMSO-treated controls. Percentage remaining viability values at a single concentration, growth inhibition (GI50) or cell viability (LD50) values are determined from those curves. One skilled in the art will appreciate that these values are subject to experimental variation.

Sequence of hNAMPT protein (P43490 whole entry): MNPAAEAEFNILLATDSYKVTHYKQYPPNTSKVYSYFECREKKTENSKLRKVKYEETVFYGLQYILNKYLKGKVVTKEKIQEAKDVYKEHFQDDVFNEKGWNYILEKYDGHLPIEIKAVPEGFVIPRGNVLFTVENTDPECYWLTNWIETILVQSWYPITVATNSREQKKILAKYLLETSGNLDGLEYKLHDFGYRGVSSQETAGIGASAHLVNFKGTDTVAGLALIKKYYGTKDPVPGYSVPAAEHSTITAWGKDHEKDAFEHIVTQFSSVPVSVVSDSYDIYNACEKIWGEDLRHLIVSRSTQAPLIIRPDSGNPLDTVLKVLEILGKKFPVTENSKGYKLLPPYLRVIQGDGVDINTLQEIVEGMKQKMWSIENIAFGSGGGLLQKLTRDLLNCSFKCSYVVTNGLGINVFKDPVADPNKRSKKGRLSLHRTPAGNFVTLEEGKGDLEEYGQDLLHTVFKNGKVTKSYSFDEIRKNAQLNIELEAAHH

Compound | IC50 [1] | inhibition at 1 µM ([1]; compound concentration 1 μM) | inhibition at 1 µM [2] | inhibition at 1.667 µM [2] | inhibition at 1.852 µM ([2]; compound concentration 1.852 μM) | inhibition at 1 µM [1]
O=C(NCCCc1cccnc1)c1ccc2nc(-c3ccc(F)cc3)c(-c3ccc(F)cc3)nc2c1 [Compound I-32, 2,3-bis(4-fluorophenyl)-N-[3-(pyridin-3-yl)propyl]quinoxaline-6-carboxamide] | 100 to 500 nM | 78% | -5% | – | – | –
Cn1cnc2c1CN(C(=O)c1ccc3nc(-c4ccc(F)cc4)c(-c4ccc(F)cc4)nc3c1)CC2 [Compound I-33, [2,3-bis(4-fluorophenyl)quinoxalin-6-yl](3-methyl-3,4,6,7-tetrahydro-5H-imidazo[4,5-c]pyridin-5-yl)methanone] | 2000 to 10000 nM | 20% | 92% | – | – | –
C[C@@H]1CN(c2nc3cc(C(=O)NCCCn4ccnc4)ccc3nc2-c2ccccc2)C[C@H](C)O1 [Compound I-34, cis-3-[(2R,6S)-2,6-dimethylmorpholin-4-yl]-N-[3-(1H-imidazol-1-yl)propyl]-2-phenylquinoxaline-6-carboxamide] | 1000 to 2000 nM | 47% | -6% | – | – | –
O=C(NCCCc1c[nH]cn1)c1ccc2nc(N3CCOCC3)c(-c3ccc(F)cc3)nc2c1 [Compound I-35, 3-(4-fluorophenyl)-N-[3-(1H-imidazol-4-yl)propyl]-2-(morpholin-4-yl)quinoxaline-6-carboxamide] | < 100 nM | 90% | – | 2% | – | –
COc1ccccc1-c1nc2cc(C(=O)NCCCn3ccnc3)ccc2nc1-c1ccccc1 [Compound I-36, N-[3-(1H-imidazol-1-yl)propyl]-3-(2-methoxyphenyl)-2-phenylquinoxaline-6-carboxamide] | 100 to 500 nM | 51% | 1% | – | – | –
O=C(NCCCn1ccnc1)c1ccc2nc(N3CC4CC3CO4)c(-c3ccccc3)nc2c1 (stereo not drawn) [Compound I-37, N-[3-(1H-imidazol-1-yl)propyl]-2-(2-oxa-5-azabicyclo[2.2.1]hept-5-yl)-3-phenylquinoxaline-6-carboxamide] | 500 to 1000 nM | 65% | -6% | – | – | –
Cn1cnc2cc(-c3nc4ccc(C(=O)NCCCn5ccnc5)cc4nc3-c3ccccc3)ccc21 [Compound I-38, N-[3-(1H-imidazol-1-yl)propyl]-2-(1-methyl-1H-benzimidazol-5-yl)-3-phenylquinoxaline-6-carboxamide] | < 100 nM | 94% | -8% | – | – | –
O=C(NCCCc1ncc[nH]1)c1ccc2nc(N3CCOCC3)c(-c3ccc(F)cc3)nc2c1 [Compound I-39, 3-(4-fluorophenyl)-N-[3-(1H-imidazol-2-yl)propyl]-2-(morpholin-4-yl)quinoxaline-6-carboxamide] | < 100 nM | 97% | – | 2% | – | –
O=C(NCCCn1ccnc1)c1ccc2nc(-c3ccccc3)c(-c3cncnc3)nc2c1 [Compound I-41, N-[3-(1H-imidazol-1-yl)propyl]-2-phenyl-3-(pyrimidin-5-yl)quinoxaline-6-carboxamide] | 2000 to 10000 nM | 17% | 5% | – | – | –
O=C(NCCCc1nccs1)c1ccc2nc(N3CCC(N4CCOCC4)CC3)c(-c3ccc(F)cc3)nc2c1 [Compound I-42, 3-(4-fluorophenyl)-2-[4-(morpholin-4-yl)piperidin-1-yl]-N-[3-(1,3-thiazol-2-yl)propyl]quinoxaline-6-carboxamide] | < 100 nM | 96% | – | > 99% | – | –
O=C(NCCc1ccc2[nH]cnc2c1)c1ccc2nc(-c3ccc(F)cc3)c(-c3ccc(F)cc3)nc2c1 [Compound I-43, N-[2-(1H-benzimidazol-5-yl)ethyl]-2,3-bis(4-fluorophenyl)quinoxaline-6-carboxamide] | 2000 to 10000 nM | 23% | 16% | – | – | –
O=C(NCCCc1ncc[nH]1)c1ccc2nc(N3CCC(N4CCOCC4)CC3)c(-c3cccs3)nc2c1 [Compound I-44, N-[3-(1H-imidazol-2-yl)propyl]-2-[4-(morpholin-4-yl)piperidin-1-yl]-3-(2-thienyl)quinoxaline-6-carboxamide] | < 100 nM | > 99% | – | 33% | – | –
O=C(NCCCn1ccnc1)c1ccc2nc(-c3ccc(Cl)cc3)c(-c3ccccc3)nc2c1 [Compound I-45, 2-(4-chlorophenyl)-N-[3-(1H-imidazol-1-yl)propyl]-3-phenylquinoxaline-6-carboxamide] | 100 to 500 nM | 50% | -6% | – | – | –
COc1cccc(-c2nc3cc(C(=O)NCCCc4cccnc4)ccc3nc2N2CCC(O)CC2)c1 [Compound I-46, 2-(4-hydroxypiperidin-1-yl)-3-(3-methoxyphenyl)-N-[3-(pyridin-3-yl)propyl]quinoxaline-6-carboxamide] | < 100 nM | 98% | – | – | 2% | –
O=C(NCCCc1ccnnc1)c1ccc2nc(N3CCOCC3)c(-c3ccc(F)cc3)nc2c1 [Compound I-47, 3-(4-Fluorophenyl)-2-(morpholin-4-yl)-N-[3-(pyridazin-4-yl)propyl]quinoxaline-6-carboxamide] | < 100 nM | – | – | 33% | – | 90%
CS(=O)(=O)Nc1cccc(-c2nc3cc(C(=O)NCCCn4ccnc4)ccc3nc2-c2ccccc2)c1 [Compound I-48, N-[3-(1H-imidazol-1-yl)propyl]-3-{3-[(methylsulfonyl)amino]phenyl}-2-phenylquinoxaline-6-carboxamide] | 100 to 500 nM | 87% | 1% | – | – | –
O=C(NCCCn1ccnc1)c1ccc2nc(-c3cn[nH]c3)c(-c3ccccc3)nc2c1 [Compound I-49, N-[3-(1H-imidazol-1-yl)propyl]-3-phenyl-2-(1H-pyrazol-4-yl)quinoxaline-6-carboxamide] | 500 to 1000 nM | 56% | 8% | – | – | –
O=C(NCCCc1ncc[nH]1)c1ccc2nc(Cl)c(-c3ccc(Cl)cc3)nc2c1 [Compound I-50, 2-chloro-3-(4-chlorophenyl)-N-[3-(1H-imidazol-2-yl)propyl]quinoxaline-6-carboxamide] | < 100 nM | 87% | – | 96% | – | –
CC(=O)N1CCN(c2nc3ccc(C(=O)NCCCn4ccnc4)cc3nc2-c2ccccc2)CC1 [Compound I-51, 2-(4-acetylpiperazin-1-yl)-N-[3-(1H-imidazol-1-yl)propyl]-3-phenylquinoxaline-6-carboxamide] | 100 to 500 nM | 81% | -7% | – | – | –
COc1cccc(-c2nc3ccc(C(=O)NCCCn4ccnc4)cc3nc2-c2cccc(OC)c2)c1 [Compound I-52, N-[3-(1H-imidazol-1-yl)propyl]-2,3-bis(3-methoxyphenyl)quinoxaline-6-carboxamide] | < 100 nM | 103% | 0% | – | – | –
Cn1cncc1CCNC(=O)c1ccc2nc(-c3ccc(F)cc3)c(-c3ccc(F)cc3)nc2c1 [Compound I-53, 2,3-bis(4-fluorophenyl)-N-[2-(1-methyl-1H-imidazol-5-yl)ethyl]quinoxaline-6-carboxamide] | 100 to 500 nM | 77% | -6% | – | – | –
